Assay results taken from patent publication US20230278983A1, “INDOLE DERIVATIVES AND USES THEREOF FOR TREATING A CANCER” (Universite Claude Bernard Lyon 1, priority 2020, published 2023).

Biological target: CK2 (Homo sapiens (Human), UniProt P68400)
Test: Radiometric CK2 kinase assay
Assay type: biochemical
Conditions: not given

Chain of CK2 (P68400 whole entry): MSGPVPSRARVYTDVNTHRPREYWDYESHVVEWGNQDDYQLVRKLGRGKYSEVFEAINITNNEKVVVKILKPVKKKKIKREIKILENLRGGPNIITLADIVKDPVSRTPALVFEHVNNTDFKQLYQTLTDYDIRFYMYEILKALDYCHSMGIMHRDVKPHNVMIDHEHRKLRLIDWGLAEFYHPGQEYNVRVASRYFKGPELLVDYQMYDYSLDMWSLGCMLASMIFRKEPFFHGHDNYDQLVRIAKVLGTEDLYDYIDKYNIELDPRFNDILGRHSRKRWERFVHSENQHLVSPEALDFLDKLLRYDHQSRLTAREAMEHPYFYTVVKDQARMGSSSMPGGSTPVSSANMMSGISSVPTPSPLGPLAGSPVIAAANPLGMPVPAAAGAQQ

Structure (SMILES)	IC50 [µM]
CCOC(=O)c1[nH]c2ccc(F)cc2c1-c1cn(CC2CCN(CCNS(=O)(=O)c3ccc(C(F)(F)F)cc3)CC2)nn1 [AB529, Ethyl 5-fluoro-3-(1-((1-(2-((4-(trifluoromethyl)phenyl)sulfonamido)ethyl)piperidin-4-yl)methyl)-1H-1,2,3-triazol-4-yl)-1H-indole-2-carboxylate]	0.7
CCOC(=O)c1[nH]c2ccc(Cl)cc2c1-c1cn(CC2CCN(CCNS(=O)(=O)c3ccc(C)cc3)CC2)nn1 [AB505, Ethyl 5-chloro-3-(1-((1-(2-((4-methylphenyl)sulfonamido)ethyl)piperidin-4-yl)methyl)-1H-1,2,3-triazol-4-yl)-1H-indole-2-carboxylate]	3.76
CC(=O)c1[nH]c2ccc(F)cc2c1-c1cn(CC2CCN(CCNS(=O)(=O)c3ccc(-c4c(C)noc4C)cc3)CC2)nn1 [AB1286, N-(2-(4-((4-(2-acetyl-5-fluoro-1H-indol-3-yl)-1H-1,2,3-triazol-1-yl)methyl)piperidin-1-yl)ethyl)-4-(3,5-dimethylisoxazol-4-yl)benzenesulfonamide]	0.43
CC(C)COC(=O)c1[nH]c2ccc(F)cc2c1-c1cn(CC2CCN(CCNS(=O)(=O)c3ccc(-c4cccnc4Cl)cc3)CC2)nn1 [AB1133, isobutyl 3-(1-((1-(2-((4-(2-chloropyridin-3-yl)phenyl)sulfonamido)ethyl)piperidin-4-yl)methyl)-1H-1,2,3-triazol-4-yl)-5-fluoro-1H-indole-2-carboxylate]	0.026
CC(C)COC(=O)c1[nH]c2ccc(F)cc2c1-c1cn(CC2CCN(CCNS(=O)(=O)c3ccc(-c4ccccc4N(C)C)cc3)CC2)nn1 [AB1209, isobutyl 3-(1-((1-(2-((2′-(dimethylamino)-[1,1′-biphenyl])-4-sulfonamido)ethyl)piperidin-4-yl)methyl)-1H-1,2,3-triazol-4-yl)-5-fluoro-1H-indole-2-carboxylate]	0.07
CC(C)COC(=O)c1[nH]c2ccc(F)cc2c1-c1cn(CC2CCN(CCNS(=O)(=O)c3ccc(-c4ccoc4)cc3)CC2)nn1 [AB1071, isobutyl 5-fluoro-3-(1-((1-(2-((4-(furan-3-yl)phenyl)sulfonamido)ethyl)piperidin-4-yl)methyl)-1H-1,2,3-triazol-4-yl)-1H-indole-2-carboxylate]	0.065
CCOC(=O)c1[nH]c2ccc(F)cc2c1-c1cn(CC2CCN(CCNS(=O)(=O)c3ccc(C(C)C)cc3)CC2)nn1 [AB579, Ethyl 5-fluoro-3-(1-((1-(2-((4-isopropylphenyl)sulfonamido)ethyl)piperidin-4-yl)methyl)-1H-1,2,3-triazol-4-yl)-1H-indole-2-carboxylate]	0.43
CC(C)COC(=O)c1[nH]c2ccc(F)cc2c1-c1cn(CC2CCN(CCNS(=O)(=O)c3ccc(C4=CCC(F)(F)CC4)cc3)CC2)nn1 [AB1070, isobutyl 3-(1-((1-(2-((4′,4′-difluoro-2′,3′,4′,5′-tetrahydro-[1,1′-biphenyl])-4-sulfonamido)ethyl)piperidin-4-yl)methyl)-1H-1,2,3-triazol-4-yl)-5-fluoro-1H-indole-2-carboxylate]	0.2

Same assay, conditions: compound at 0.10 μM; ATP 10 μM

Structure (SMILES)	inhibition at 0.1 µM [%]
CC(C)Cc1ccc(S(=O)(=O)NCCN2CCC(Cn3cc(-c4c(C(=O)c5cccnc5)[nH]c5ccc(F)cc45)nn3)CC2)cc1 [AB1301, N-(2-(4-((4-(5-fluoro-2-nicotinoyl-1H-indol-3-yl)-1H-1,2,3-triazol-1-yl)methyl)piperidin-1-yl)ethyl)-4-isobutylbenzenesulfonamide]	3
CC(C)Cc1ccc(S(=O)(=O)NCCN2CCC(Cn3cc(-c4c(C(=O)N5CCOCC5)[nH]c5ccc(F)cc45)nn3)CC2)cc1 [AB1132, N-(2-(4-((4-(5-fluoro-2-(morpholine-4-carbonyl)-1H-indol-3-yl)-1H-1,2,3-triazol-1-yl)methyl)piperidin-1-yl)ethyl)-4-isobutylbenzenesulfonamide]	4
CC(=O)c1[nH]c2ccc(F)cc2c1-c1cn(CC2CCN(CCNS(=O)(=O)N3CCC(c4cccnc4F)CC3)CC2)nn1 [AB1322, N-(2-(4-((4-(2-acetyl-5-fluoro-1H-indol-3-yl)-1H-1,2,3-triazol-1-yl)methyl)piperidin-1-yl)ethyl)-4-(2-fluoropyridin-3-yl)piperidine-1-sulfonamide]	10

Same assay, conditions: compound at 1 μM; ATP 10 μM

Structure (SMILES)	inhibition at 1 µM [%]
CC(C)COC(=O)c1[nH]c2ccc(F)cc2c1-c1cn(CC2CCN(Cc3ccc(-c4ccc5c(c4)CCO5)c(Cl)c3)CC2)nn1 [AB731, Isobutyl 3-(1-((1-(3-chloro-4-(2,3-dihydrobenzofuran-5-yl)benzyl)piperidin-4-yl)methyl)-1H-1,2,3-triazol-4-yl)-5-fluoro-1H-indole-2-carboxylate]	5
CC(C)CCNC(=O)c1[nH]c2ccc(F)cc2c1-c1cn(CC2CCN(CCNS(=O)(=O)c3ccc(C(C)C)cc3)CC2)nn1 [AB671, 5-Fluoro-N-isopentyl-3-(1-((1-(2-((4-isopropylphenyl)sulfonamido)ethyl)piperidin-4-yl)methyl)-1H-1,2,3-triazol-4-yl)-1H-indole-2-carboxamide]	18
CC(C)COC(=O)c1[nH]c2ccc(F)cc2c1-c1cn(CC2CCN(Cc3ccc(Oc4ccccc4)c(Cl)c3)CC2)nn1 [AB691, Isobutyl 3-(1-((1-(3-chloro-4-phenoxybenzyl)piperidin-4-yl)methyl)-1H-1,2,3-triazol-4-yl)-5-fluoro-1H-indole-2-carboxylate]	3
CC(C)COC(=O)c1[nH]c2ccc(F)cc2c1-c1cn(CC2CCN(Cc3ccc(-c4cccc(C(C)C)c4)c(Cl)c3)CC2)nn1 [AB758, Isobutyl 3-(1-((1-((2-chloro-3′-isopropyl-[1,1′-biphenyl]-4-yl)methyl)piperidin-4-yl)methyl)-1H-1,2,3-triazol-4-yl)-5-fluoro-1H-indole-2-carboxylate]	17
CC(=O)c1cccc(Oc2ccc(CN3CCC(Cn4cc(-c5c(C(=O)OCC(C)C)[nH]c6ccc(F)cc56)nn4)CC3)cc2C(C)C)c1 [AB718, Isobutyl 3-(1-((1-(4-(3-acetylphenoxy)-3-isopropylbenzyl)piperidin-4-yl)methyl)-1H-1,2,3-triazol-4-yl)-5-fluoro-1H-indole-2-carboxylate]	5
CCc1ccc(S(=O)(=O)NCCN2CCC(Cn3cc(-c4c(C(=O)OCCC(C)C)[nH]c5ccc(F)cc45)nn3)CC2)cc1 [AB663, Isopentyl 3-(1-((1-(2-((4-ethylphenyl)sulfonamido)ethyl)piperidin-4-yl)methyl)-1H-1,2,3-triazol-4-yl)-5-fluoro-1H-indole-2-carboxylate]	11

Same assay, conditions: inhibition of CK2 activity; ATP 10 μM

Structure (SMILES)	IC50 [µM]
CCC(C)c1ccc(S(=O)(=O)NCCN2CCC(Cn3cc(-c4c(C(=O)OCC(C)C)[nH]c5ccc(F)cc45)nn3)CC2)cc1 (stereo not shown) [AB931, isobutyl 3-(1-((1-(2-((4-(sec-butyl)phenyl)sulfonamido)ethyl)piperidin-4-yl)methyl)-1H-1,2,3-triazol-4-yl)-5-fluoro-1H-indole-2-carboxylate]	0.1
CC(C)COC(=O)c1[nH]c2ccc(F)cc2c1-c1cn(CC2CCN(CCNS(=O)(=O)N3CCC(c4ccccc4)CC3)CC2)nn1 [AB929, isobutyl 5-fluoro-3-(1-((1-(2-((4-phenylpiperidine)-1-sulfonamido)ethyl)piperidin-4-yl)methyl)-1H-1,2,3-triazol-4-yl)-1H-indole-2-carboxylate]	0.058
